According to EP2711367A1, “New spiroepoxide tetrahydrobenzo-triazoles and -imidazoles and their use as MetAP-II inhibitors” (Deutsches Krebsforschungszentrum, priority 2012, dated 2014):
Like-named read-outs stand apart in the source and are kept apart here.

Legend:
hsMetAP-I = hsMetAP-I (Homo sapiens, UniProt P53582); assay: MetAP inhibitory activity, Met-Gly-Met-Met substrate, HPLC detection of Gly-Met-Met; format: biochemical, hs; conditions: for inhibition at 25 µM: read-out: hsMetAP-I % inhibition
Protocol: (§1) The below protocol describes the measurement of the inhibitory activity of the compounds of the present invention by using E. coli MetAP, hsMetAP-I, and hsMetAP-II.
(§2) Inhibition activity of compounds was studied using the tetrapeptide substrate Met-Gly-Met-Met (Bachem) followed by HPLC analysis of the product Gly-Met-Met. The assay was performed in 96 well plates (Greiner) at a total reaction volume of 100 µl. […] A positive control with DMSO solution instead of inhibitor at the corresponding concentration was prepared. Then the substrate Met-Gly-Met-Met was added to a final concentration of 400 µM. After an incubation period of 15 minutes (HsMetAP-I), 20 minutes (EcMetAP) or 60 minutes (HsMetAP-II) at 37 °C, the enzyme reaction was stopped by adding 10 µl 4 % trifluoroacetic acid. The plate was centrifuged at 1000 x g for 10 minutes.
(§3) Detection of the product Gly-Met-Met was performed by HPLC (Jasco), and typically using the following, or equivalent conditions: C18 column (Dr. Maisch, ReproSil-Pur® 120 ODS-3, 3 µm, 50 x 2 mm). 80 µl of sample were applied on the column and eluted with mobile phase A (water and 0.1 % trifluoroacetic acid, filtered, degassed) and B (acetonitrile and 0.1 % trifluoroacetic acid, degassed) over 8 minutes.
(§4) Percentage inhibition was calculated as the relation of Gly-Met-Met amount resulting in inhibited and uninhibited enzyme reaction (positive control). […] The values were determined in relation to positive controls with equal DMSO contents. The inhibition values for the varying concentrations of inhibitor were then fitted to a logarithmic dose-response curve and the IC50 values were calculated from the equation thus obtained.

hsMetAP-II = hsMetAP-II (Homo sapiens, UniProt P50579); assay: as above; format: biochemical, hs
Protocol: as §1
Inhibition activity of compounds was studied using the tetrapeptide substrate Met-Gly-Met-Met (Bachem) followed by HPLC analysis of the product Gly-Met-Met. The assay was performed in 96 well plates (Greiner) at a total reaction volume of 100 µl. […] Then the substrate Met-Gly-Met-Met was added to a final concentration of 400 µM. After an incubation period of 15 minutes (HsMetAP-I), 20 minutes (EcMetAP) or 60 minutes (HsMetAP-II) at 37 °C, the enzyme reaction was stopped by adding 10 µl 4 % trifluoroacetic acid. The plate was centrifuged at 1000 x g for 10 minutes.
as §3, §4

E. coli MetAP = E. coli MetAP (Escherichia coli, UniProt P0AE18); assay: as above; format: biochemical; conditions: for E. Coli % inhibition: single concentration: inhibitor 25 µM, enzyme 50 nM, 20 minutes substrate incubation at 37 °C; for inhibition at 25 µM: read-out: E. Coli % inhibition
Protocol: as §1, §2, §3, §4

[1] = system: human umbilical vein endothelial cells (HUVEC); assay: HUVEC growth arrest, crystal violet staining; format: cell-based; conditions: Homo sapiens, HUVEC, 240 h, growth over 10 days, 0-100 µM, OD at 595 nm; read-out: HUVEC IC50
Source text: For the measurement of the HUVEC growth arrest (Example 19) and the used materials and equipment were:
• Cells: Primary human umbilical vein cells (HUVEC) were obtained from GIBCO (Cat. C-015-5C). • Cell culture medium: Medium 200 supplemented with LSGS (Gibco, Cat. M-200-500). • Trypsin/EDTA (Gibco, Cat R-001-100) • Trypsin Neutralizer solution (Gibco, Cat R-002-100). • Crystal violet (Merck / Cat. no. 1408) • Ethanol (Riedel-de-Haen / Cat. no. 32205) • Acetic acid (Riedel-de-Haen / Cat. no. 33209) • Culture flasks: Coming, 430168 • 96 well plates: Greiner, 655 101
• Microtiter pipettes: •Brand Transferpette-8, • Gilson Pipetman 20 and 200 Laminar air flow cabinet: Gelman, Celaire • ELISA reader: Thermo, Multiskan Ascent • Microscope: Leitz Diavert • Balance: Sartorius RC 210 D • CO2 incubator: Heraeus CO2-Auto-Zero • Centrifuge: Heraeus Biofuge primo • Cell counter: Assistent, Neubauer hematocytometer
Crystal violet solution: • Crystal violet (Merck) was dissolved in ethanol (PA quality, Roth) to a concentration of 10 %. The solution was diluted with ddH2O 1:20.
Test compounds: • Compounds of the present invention were dissolved at a concentration of 10 mM in DMSO (Roth, Cat. 47201). Stock solutions of test compounds were diluted 1:10 not earlier than 1 hour before the assay was made.
• 1. HUVEC cells were seeded in 96-well plates ([…]). • 2. 6 hours later test compounds were added in triplicates Concentrations of test compound: 0, 1.6, 3.2, 6.3, 12.5, 25, 50, 100 µM. Fresh medium and test compounds were added every 48 hr. • 3. One 96 well plate (t=0) with untreated cells was fixed at the same time point as treatment of cells with test compounds was initiated. • 4. Test plates were incubated for 10 days in a CO2 incubator. • 5. Fixation of cells: Wells were washed with 100 µL/well PBS. PBS was decanted and 100 µL of 3 % formaldehyde/well was added. After 5 min, formaldehyde was decanted and plates were dried upside down on blotting paper overnight at room temperature. • 6. Staining: 0.1 mL of crystal violet solution was added to each well with a 12-channel pipette. After incubation for 5 min at room temperature, the crystal violet solution was decanted and plates were washed 5 x by submersion in 3 L fresh water. • 7. After drying (plates were dried on blotting paper upside down overnight) 0.1 mL of ethanol/acetic acid (99:1) was added to each well and the optical density at 595 nm was determined in an ELISA reader.
The evaluation of the growth inhibitory activity was carried out as follows: • Definitions: Growth: Mean OD at t=10 d - mean OD at t=0. • Evaluation: Dose response curves were established by plotting growth against concentration of compounds using Microsoft Excel.

[2] = single concentration: inhibitor 25 µM, enzyme 50 nM, 15 minutes substrate incubation at 37 °C
[3] = single concentration: inhibitor 25 µM, enzyme 50 nM, 60 minutes substrate incubation at 37 °C, read-out: hsMetAP-II % inhibition
[4] = read-out: hsMetAP-II % inhibition, single concentration: inhibitor 25 µM, enzyme 50 nM, 60 minutes substrate incubation at 37 °C
[5] = enzyme 50 nM, 400 µM Met-Gly-Met-Met, 60 minutes at 37 °C, read-out: hsMetAP-II IC50
[6] = single concentration: inhibitor 25 µM, enzyme 50 nM, 60 minutes substrate incubation at 37 °C

Sequence of E. coli MetAP (P0AE18 whole entry): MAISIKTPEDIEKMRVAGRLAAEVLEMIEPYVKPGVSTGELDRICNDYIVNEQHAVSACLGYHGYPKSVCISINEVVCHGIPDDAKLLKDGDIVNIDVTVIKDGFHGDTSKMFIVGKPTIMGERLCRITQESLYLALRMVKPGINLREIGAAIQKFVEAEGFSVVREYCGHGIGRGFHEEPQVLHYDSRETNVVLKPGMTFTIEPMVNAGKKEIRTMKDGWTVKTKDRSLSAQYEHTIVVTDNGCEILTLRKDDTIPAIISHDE
Sequence of hsMetAP-II (P50579 whole entry): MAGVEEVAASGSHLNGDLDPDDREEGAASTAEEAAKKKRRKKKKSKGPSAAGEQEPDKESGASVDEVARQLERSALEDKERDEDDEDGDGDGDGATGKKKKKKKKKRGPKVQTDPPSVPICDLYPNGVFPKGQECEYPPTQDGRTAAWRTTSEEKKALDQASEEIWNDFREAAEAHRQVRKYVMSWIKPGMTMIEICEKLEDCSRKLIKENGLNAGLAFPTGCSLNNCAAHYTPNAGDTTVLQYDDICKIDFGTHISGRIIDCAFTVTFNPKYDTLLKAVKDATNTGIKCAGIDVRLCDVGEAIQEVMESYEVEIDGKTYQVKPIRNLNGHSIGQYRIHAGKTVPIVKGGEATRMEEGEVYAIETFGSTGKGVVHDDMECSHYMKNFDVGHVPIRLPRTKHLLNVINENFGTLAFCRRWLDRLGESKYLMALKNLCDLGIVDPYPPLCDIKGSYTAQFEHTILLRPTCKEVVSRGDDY

Structure (SMILES)	hsMetAP-I % inhibition (hsMetAP-I; [2])	inhibition at 25 µM (hsMetAP-II; [3]) [%]	E. Coli % inhibition (E. coli MetAP)	inhibition at 25 µM (E. coli MetAP) [%]	also measured
O=C(O[C@@H]1CC[C@@]2(CO2)c2c1nnn2Cc1ccc2ccccc2c1)c1ccccc1 [JL-III-132-D]	Inactive	15 ± 5	Inactive	–	–
O=C(O[C@@H]1CC[C@]2(CO2)c2c1nnn2Cc1ccc2ccccc2c1)c1ccccc1 (racemic) [JL-III-132-C]	Inactive	–	–	22 ± 7	IC50 (hsMetAP-II): 3.7 ± 0.3 µM; inhibition at 25 µM (hsMetAP-II; [4]): 63 ± 5%
O=C1CCC2(CO2)c2c1nnn2Cc1ccccc1 (centres unmarked) [HHS-I-027-B]	Inactive	64.5 ± 0.1	Inactive	–	IC50 (hsMetAP-II; [5]): 13.7 ± 3.4 µM
Cc1ccccc1Cn1nnc2c1C1(CCC2=O)CO1 (centres unmarked) [BK-I-181-B]	Inactive	100	Inactive	–	IC50 (hsMetAP-II; [5]): 5.1 ± 2.9 µM
O=C1CCC2(CO2)c2c1ncn2Cc1ccccc1 (centres unmarked) [JL-III-084-C]	Inactive	24 ± 1	Inactive	–	–
CC(C)c1ccc(Cn2nnc3c2C2(CCC3=O)CO2)cc1 (centres unmarked) [JL-III-138-A]	–	84 ± 3	–	50 ± 6	inhibition at 25 µM (hsMetAP-I; [2]): 16 ± 2%; IC50 (hsMetAP-II; [5]): 5.5 ± 3 µM
CCn1cnc2c1C1(CCC2=O)CO1 (centres unmarked) [JL-II-137-A]	Inactive	–	Inactive	–	hsMetAP-II % inhibition (hsMetAP-II; [6]): Inactive
CCCCCCCCn1nnc2c1C1(CCC2=O)CO1 (centres unmarked) [CJ-II-010]	–	50 ± 2	–	14 ± 7	inhibition at 25 µM (hsMetAP-I; [2]): 12.1 ± 1.5%
CC(C)Cn1cnc2c1C1(CCC2=O)CO1 (centres unmarked) [JL-II-120-B]	Inactive	12 ± 6	Inactive	–	–
COc1ccc(Cn2nnc3c2C2(CCC3OC(=O)C=Cc3cc(OC)c(OC)c(OC)c3)CO2)cc1 (racemic) [UWU-XII-035-A]	Inactive	–	Inactive	–	inhibitory effect on MetAP-II (in words) (hsMetAP-II): good inhibitory effect; inhibition at 25 µM (hsMetAP-II; [4]): 94 ± 4%; IC50 (hsMetAP-II; read-out: hsMetAP-II IC50, enzyme 50 nM, 400 µM Met-Gly-Met-Met, 60 minutes at 37 °C): 0.5 ± 1 µM
O=C1CCC2(CO2)c2c1nnn2Cc1ccc2ccccc2c1 (centres unmarked) [HHS-I-020-C]	Inactive	84.1 ± 3.2	–	24 ± 8	IC50 (hsMetAP-II; [5]): 2.7 ± 0.1 µM
CC(C)c1ccc(Cn2nnc3c2[C@]2(CC[C@H]3OC(=O)c3ccccc3)CO2)cc1 (racemic) [UWU-XII-036-A]	Inactive	–	–	20 ± 8	IC50 (hsMetAP-II): 4.7 ± 0.3 µM; inhibition at 25 µM (hsMetAP-II; [4]): 59 ± 5%
COc1ccc(Cn2nnc3c2[C@@]2(CC[C@@H]3OC(=O)NC(C)C)CO2)cc1 [(-)-UWU-XII-131-A]	Inactive	–	Inactive	–	IC50 [1]: 8.2 µM
O=C(O[C@@H]1CC[C@]2(CO2)c2c1nnn2Cc1ccccc1)c1ccccc1 (racemic) [JL-III-147-A]	–	–	–	45 ± 7	inhibition at 25 µM (hsMetAP-I): 15 ± 1%; IC50 (hsMetAP-II): 1.3 ± 0.01 µM; inhibition at 25 µM (hsMetAP-II; [4]): 93.3 ± 2.1%
COc1ccc(Cn2nnc3c2[C@]2(CC[C@H]3OC(=O)NC(C)C)CO2)cc1 (racemic) [UWU-XII-131-A]	Inactive	–	Inactive	–	IC50 [1]: 0.4 µM
Cn1nnc2c1C1(CCC2=O)CO1 (racemic) [CJ-II-011]	–	–	–	20 ± 2	inhibition at 25 µM (hsMetAP-I; [2]): 14 ± 7%; hsMetAP-II % inhibition (hsMetAP-II; [6]): Inactive
Cn1cnc2c1C1(CCC2=O)CO1 (racemic) [JL-II-136-A]	Inactive	–	Inactive	–	hsMetAP-II % inhibition (hsMetAP-II; [6]): Inactive
COc1ccc(Cn2nnc3c2[C@@]2(CC[C@H]3OC(=O)/C=C/c3cc(OC)c(OC)c(OC)c3)CO2)cc1 (racemic) [UWU-II-035-C]	Inactive	–	Inactive	–	IC50 (hsMetAP-II): 2.02 ± 0.03 µM; inhibition at 25 µM (hsMetAP-II; [4]): 85 ± 11%
CCCn1cnc2c1C1(CCC2=O)CO1 (racemic) [JL-II-116-A]	Inactive	–	Inactive	–	hsMetAP-II % inhibition (hsMetAP-II; [6]): Inactive
CC(C)CCn1cnc2c1C1(CCC2=O)CO1 (centres unmarked) [JL-II-115-A]	Inactive	–	–	25 ± 8	hsMetAP-II % inhibition (hsMetAP-II; [6]): Inactive
O=C(O[C@@H]1CC[C@@]2(CO2)c2c1nnn2Cc1ccccc1)c1ccccc1 (racemic) [JL-III-147-B]	Inactive	–	–	36 ± 11	IC50 (hsMetAP-II): 19.1 ± 9 µM; inhibition at 25 µM (hsMetAP-II; [4]): 59 ± 2%
CCn1nnc2c1C1(CCC2=O)CO1 (centres unmarked) [CJ-II-007]	Inactive	–	–	22 ± 5	hsMetAP-II % inhibition (hsMetAP-II; [6]): Inactive
